Like-named read-outs stand apart in the source and are kept apart here.
Columns and labels:
[1] = Apparent partition coefficient between 1-octanol and phosphate buffer pH 7.4; settings: for logD: 1-octanol/0.02 M phosphate buffer pH 7.4, pH 7.4
Description: (§3) The lipophilicity of the derivatives of the present invention and of TRH was assessed by measuring the apparent partition coefficients (P) of the compounds between 1-octanol and 0.02M phosphate buffer of pH 7.4.

[2] = Chromatographic capacity factor k' by reversed-phase column chromatography (relative lipophilicity); assay type: physicochemical; settings: Nova-PAK CN HP reversed-phase column; methanol-0.1% phosphoric acid (1:20 v/v) with 10^-3 M triethylamine
Description: The capacity factor k' of a solute is defined as: k'=(tr -t0)/t0 where tr is the retention time of the solute and t0 is the elution time of the solvent.

[3] = biological target: T1, pyroglutamyl aminopeptidase (PAPase I) (Bos taurus, UniProt A0ABI0NU39); experiment: Degradation in buffer pH 7.4 containing pyroglutamyl aminopeptidase; settings: for half-life: calf
T1 sequence (A0ABI0NU39 1-214): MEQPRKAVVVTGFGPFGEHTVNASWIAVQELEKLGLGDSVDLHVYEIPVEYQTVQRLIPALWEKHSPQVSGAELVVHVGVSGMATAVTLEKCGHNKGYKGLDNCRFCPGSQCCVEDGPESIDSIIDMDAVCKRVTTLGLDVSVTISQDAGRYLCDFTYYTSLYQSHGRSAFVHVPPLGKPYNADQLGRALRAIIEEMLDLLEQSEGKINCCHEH
Description: (§1) Solutions of various compounds of formula I in aqueous buffer solutions or 80% human plasma solutions as well as in a buffer solution (pH 7.4) containing pyroglutamyl aminopeptidase (a calf liver preparation obtained from Boehringer, Mannheim, F.R.G.) were kept at 37° C. The initial concentration of the derivatives was in the range 10^-5 -10^-3 M. At various times an aliquot of the solutions was withdrawn and analyzed by HPLC for remaining (intact) derivative as well as for TRH. For the plasma solutions the aliquot (250 μl) withdrawn was added to 500 μl of a 2% solution of zinc sulphate in methanol-water (1:1 v/v) in order to deproteinize the plasma. After mixing and centrifugation for 3 min at 13,000 rpm, 20 μl of the clear supernatant was analyzed by HPLC as described above. The reaction conditions used for the studies with the pyroglutamyl aminopeptidase enzyme were identical to those previously described by Bundgaard & Moss (1989).
(§2) An HPLC method was used for the determination of TRH and its derivatives. […] For the determination of TRH formed upon hydrolysis of the various derivatives a mobile phase system consisting of acetonitrile-0.1% phosphoric acid (1:20 v/v) containing […] triethylamine was used. The flow rate was 1.5 ml min and the column effluent was monitored at 215 nm. Quantitation of the compounds was done by measuring the peak heights in relation to those of standards chromatographed under the same conditions.

[4] = Hydrolysis in aqueous buffer solutions (HPLC); assay type: physicochemical
Description: as §1, with “Solutions of various compounds of formula I in aqueous buffer solutions or 80% human plasma solutions as well as in a buffer solution (pH 7.4) containing pyroglutamyl aminopeptidase (a calf liver preparation obtained from Boehringer, Mannheim, F.R.G.) were kept at 37° C.” left out
as §2

in vitro = settings: for half-life: human, plasma
Description: as §1, §2
For the consideration of the derivatives as prodrugs of TRH a crucial point is evidently their degradation pathways. Ideally, the compounds should be hydrolyzed in plasma at the imidazole-protected moiety, releasing TRH in quantitative amounts.
The reactions taking place in plasma can be illustrated as shown in Scheme 1.

[5] = rat, in vivo, iv; cited from earlier work
physchem = settings: pH 7.4
Description: as §3

[6] = in vivo, iv; cited from earlier work
[7] = Percutaneous absorption, in vitro diffusion through excised human skin (Franz cells); settings: for steady-state flux: 5% prodrug in aqueous solution (pH 6.0)
Description: The feasibility of achieving transdermal delivery of TRH via the prodrugs ot the present invention was evaluated by diffusion experiments in vitro using human skin samples.
Whole abdominal human skin obtained under autopsy was used. The skin was stored at -18° C. and was allowed to thaw gradually at room temperature before use. All subcutaneous fat was removed and the skin cut into pieces. […] The dermal side of the skin was exposed to the receptor medium (5 ml of 0.05M isotonic phosphate buffer solution of pH 7.2) which was stirred magnetically and kept at a constant temperature of 37° C. with a circulating water bath.
The compounds were applied as 5% w/v solutions in 0.05M phosphate buffer (final pH being 6.0) or propylene glycol (100 or 200 μl). At appropriate intervals samples of 1 ml were removed from the receptor phase and replaced with fresh buffer. The samples were immediately analyzed for TRH and prodrug content by HPLC as described above. The permeation studies of each compound in each vehicle were done in triplicate.

| Structure (SMILES) | logD [1] | log k' [2] | half-life [3] [min] | Half-lives at 37° C., pH 7.4 buffer [4] [h] | half-life (in vitro) [min] | also measured |
| --- | --- | --- | --- | --- | --- | --- |
| CCOC(=O)n1cnc(C[C@H](NC(=O)[C@@H]2CCC(=O)N2)C(=O)N2CCC[C@H]2C(N)=O)c1 [C2 H5] | -1.3 | 0.85 | 23 | 14.2 | 228 |  |
| NC(=O)[C@@H]1CCCN1C(=O)[C@H](Cc1cn(C(=O)OC2CCCCC2)cn1)NC(=O)[C@@H]1CCC(=O)N1 [C6 H10 (cyclohexyl)] | 0.6 | 1.28 | 22 | 36.8 | 384 |  |
| NC(=O)[C@@H]1CCCN1C(=O)[C@H](Cc1cn(C(=O)OCc2ccccc2)cn1)NC(=O)[C@@H]1CCC(=O)N1 [CH2 C6 H5] | -0.11 |  | 7 | 9.0 |  |  |
| NC(=O)[C@@H]1CCCN1C(=O)[C@H](Cc1cn(C(=O)OCCCl)cn1)NC(=O)[C@@H]1CCC(=O)N1 [CH2 CH2 Cl] | -1.1 |  |  |  |  |  |
| CCCCC(CC)COC(=O)n1cnc(C[C@H](NC(=O)[C@@H]2CCC(=O)N2)C(=O)N2CCC[C@H]2C(N)=O)c1 (stereo partly shown) [CH2 CH(C2 H5)C4 H9] | 1.82 |  |  |  |  |  |
| CC(C)COC(=O)n1cnc(C[C@H](NC(=O)[C@@H]2CCC(=O)N2)C(=O)N2CCC[C@H]2C(N)=O)c1 [CH2 CH(CH3)2] | -0.44 | 1.09 | 11 | 19.0 | 258 |  |
| COC(=O)n1cnc(C[C@H](NC(=O)[C@@H]2CCC(=O)N2)C(=O)N2CCC[C@H]2C(N)=O)c1 [CH3] |  | 0.71 | 12 | 9.3 | 168 | log P ([1]; octanol / 0.02 M phosphate buffer pH 7.4, 21° C.): 1.88 |
| CCC(CC)OC(=O)n1cnc(C[C@H](NC(=O)[C@@H]2CCC(=O)N2)C(=O)N2CCC[C@H]2C(N)=O)c1 [CH(C2 H5)2] | 0.2 |  |  |  |  |  |
| CCCC(CCC)OC(=O)n1cnc(C[C@H](NC(=O)[C@@H]2CCC(=O)N2)C(=O)N2CCC[C@H]2C(N)=O)c1 [CH(C3 H7)2] | 1.2 |  |  |  |  |  |
| CC(C)OC(=O)n1cnc(C[C@H](NC(=O)[C@@H]2CCC(=O)N2)C(=O)N2CCC[C@H]2C(N)=O)c1 [CH(CH3)2] | -0.8 | 0.96 | 29 | 35.8 | 396 |  |
| NC(=O)[C@@H]1CCCN1C(=O)[C@H](Cc1cnc[nH]1)NC(=O)[C@@H]1CCC(=O)N1 [TRH, pGlu-L-His-L-ProNH2, reference compound] |  | < 0.4 |  |  | 9 | plasma half-life [5]: 4 to 6 min; half-life ([3]; isolated enzyme aminopeptidase, pH 7.4): 4 min; Half-lives at 37° C., pyroglutamyl aminopeptidase ([3]; pH 7.4): 4 min; logD (physchem): -2.46; plasma half-life [6]: 4 to 6 min; Half-life at 37° C., 80% v/v human plasma (in vitro): 9 min; zero-order rate constant of degradation (in vitro): 7.2e-07 M/min |
| CCCCOC(=O)n1cnc(C[C@H](NC(=O)[C@@H]2CCC(=O)N2)C(=O)N2CCC[C@H]2C(N)=O)c1 [n-C4 H9] | -0.47 | 1.07 | 11 | 19.0 | 258 |  |
| CCCCCCOC(=O)n1cnc(C[C@H](NC(=O)[C@@H]2CCC(=O)N2)C(=O)N2CCC[C@H]2C(N)=O)c1 [n-C6 H13, N-Hexyloxycarbonyl TRH] | 0.71 | 1.29 | 8 | 17.9 | 72 |  |
| CCCCCCCCOC(=O)n1cnc(C[C@H](NC(=O)[C@@H]2CCC(=O)N2)C(=O)N2CCC[C@H]2C(N)=O)c1 [n-C8 H17, N-Octyloxycarbonyl TRH] | 1.88 | 1.50 | 24 | 17.5 | 30 | steady-state flux ([7]; human skin): 0.044±0.006 μmol TRH/h/cm^2; steady-state flux ([7]; human skin, converted from μmol): 16 μg TRH/h/cm^2; flux ([7]; 5% prodrug in propylene glycol, human skin): 3.6 μg/h/cm^2; conversion of applied prodrug to parent TRH during diffusion through skin ([7]; human skin samples): Essentially all; time for 10% degradation ([4]; aqueous solution, pH 5.8, 20° C.): 76 h |

Reference: patent publication US5405834A, “Prodrug derivatives of thyrotropin-releasing hormone (TRH)” (priority 1989, dated 1995)
